Test system: 873145-292-R-J1-PDC complex spheroid viability
Test: Anticancer human tumor 873145-292-R-J1-PDC patient-derived renal clear cell carcinoma cell line growth inhibition [POLQ]
Settings: for IC50: curve of first compound; for viability, T/C: stronger effect = lower value
Experimental: Multicellular complex tumor spheroid response to Polymerase (POL) inhibitors (novobiocin, ART-558, RP6685) in combination with a variety of drugs and investigational agents in selected tumor cell lines
The POL inhibitors (novobiocin, ART-558, and RP6685) were evaluated both individually and in combination with standard of care and investigational anticancer small molecules within a complex spheroid model of solid tumors. . Complex spheroids include a stromal component modeled by human endothelial cells (HUVEC) and fibroblasts modeled by human mesenchymal stem cells (MSCs). The concentration ranges selected for each drug and investigational agent were based upon clinically achievable concentrations if the clinical Cmax of the agent was known.
Compounds. The drugs and investigational agents: novobiocin (NSC847541), ART-558 (NSC835418), RP-6685 (NSC848927), peposertib (NSC802822), ceralasertib (NSC780249), elimusertib (NSC800525), camonsertib (NSC841442), AZD-1390 (NSC803789), olaparib (NSC753686), talazoparib (NSC767125), rucaparib (NSC756644), sotorasib (NSC818433), MRTX-1133 (NSC836407), SN-38 (NSC673596), topotecan (NSC609699), epotoside (NSC141540), doxorubicin (NSC123127), gemcitabine (NSC613327), 5-fluorouracil (NSC19893), paclitaxel (NSC125973), vemurafenib (NSC761431), MSA-2 (NSC828583), SN-011 (NSC837082), adavosertib (NSC754352), prexasertib (NSC758257), carboplatin (NSC241240) and oxaliplatin (NSC266046), were obtained from the National Cancer Institute (NCI) Developmental Therapeutics Program Chemical Repository (21). The FDA-approved anticancer drug set is available from the Developmental Therapeutics Program at https://dtp.cancer.gov/organization/dscb/obtaining/. […] The stock solutions were prepared in dimethyl sulfoxide (DMSO, Sigma-Aldrich, St. Louis, MO, cat. D2650), except for the platinum compounds which were prepared in saline (Quality Biological, Gaithersburg, MD, cat. 114-055-101), at 800-fold the tested concentration and stored at -70 degrees C prior to their use. All drugs and investigational agents were tested over a range starting from a high concentration at or near the clinical Cmax and decreasing in half-log increments. If the clinical Cmax for an agent had not been determined, the highest concentration tested was 10 microM, except for SN-38, which was tested at a high concentration of 1 microM.
Cell Culture. All cells were maintained in an incubator at 37 degrees C and 5% CO2 with 95% humidity. The PDC lines were cultured according to standard operating procedures established by the NCI PDMR (https://pdmr.cancer.gov). Table 3 of the manuscript, lists the cell lines along with the number of the three cell types plated to form the mct-spheroids and media for tumor cell growth. After thawing, all PDC lines, except 997537-175-T-J1-PDC and 415267-285-R-J2-PDC, were cultured in Matrigel-coated flasks prepared with a working solution of 1X Ham's F-12 nutrient mix, without supplementation (Thermo Fisher Scientific, cat. 11765054), 100 U/mL penicillin-streptomycin (Thermo Fisher Scientific, cat. 15140122), and 2.5% Matrigel (Corning Inc., Corning, NY, cat. 354248) for the first three passages. The two PDC lines 997537-175-T-J1-PDC and 415267-285-R-J2-PDC were cultured on uncoated flasks. The 857933-349-R-J2-PDC line was cultured in 6C/Colon 1B media containing advanced DMEM/F-12 (Thermo Fisher Scientific, cat. 12634028), 10 mM HEPES (Thermo Fisher Scientific, cat. 15630080), 1X GlutaMAX supplement (Thermo Fisher Scientific, cat. 35050061), 0.1 mg/mL primocin (InvivoGen, San Diego, CA, cat. ant-pm-2), 10% defined fetal bovine serum, heat inactivated (HyClone Laboratories Inc., Logan, UT, cat. SH30070.03HI), 50% L-WRN conditioned media (ATCC, cat. CRL-3276), 1.25 mM N-Acetyl-L-cysteine (Sigma-Aldrich, cat. A9165), 10 mM nicotinamide (Sigma-Aldrich, cat. N0636), 1X B-27 supplement (Thermo Fisher Scientific, cat. 17504044), 1X N-2 supplement (Thermo Fisher Scientific, cat. […]
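Note: spheroids exposed to compounds for 7 days before viability readout.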
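Throughout, for viability, T/C: luminescence signal used as surrogate for viable cell content; 100% = DMSO vehicle control viability.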

Compound: C=CCn1c(=O)c2cnc(Nc3ccc(N4CCN(C)CC4)cc3)nc2n1-c1cccc(C(C)(C)O)n1 + Nc1ccc(C#CCN(C(=O)Cc2ncc(C(F)(F)F)cc2C(F)(F)F)c2ccc(F)cc2)nn1
- IC50 (second compound 0.0316 µM): > 1000 nM
- IC50 (second compound 0.1 µM): > 1000 nM
- IC50 (second compound 0.316 µM): > 1000 nM
- IC50 (second compound 1 µM): > 1000 nM
- IC50 (second compound 3.16 µM): > 1000 nM
- IC50 (second compound 10 µM): > 1000 nM
- viability, T/C (second compound 0.0316 µM, first compound 0.00316 µM): 93.8%
- viability, T/C (second compound 0.0316 µM, first compound 0.01 µM): 110%
- viability, T/C (second compound 0.0316 µM, first compound 0.0316 µM): 92.7%
- viability, T/C (second compound 0.0316 µM, first compound 0.1 µM): 86.6%
- viability, T/C (second compound 0.0316 µM, first compound 0.316 µM): 78.5%
- viability, T/C (second compound 0.0316 µM, first compound 1 µM): 77.3%
- viability, T/C (second compound 0.1 µM, first compound 0.00316 µM): 106%
- viability, T/C (second compound 0.1 µM, first compound 0.01 µM): 105%
- viability, T/C (second compound 0.1 µM, first compound 0.0316 µM): 86.4%
- viability, T/C (second compound 0.1 µM, first compound 0.1 µM): 100%
- viability, T/C (second compound 0.1 µM, first compound 0.316 µM): 89.2%
- viability, T/C (second compound 0.1 µM, first compound 1 µM): 74.1%
- viability, T/C (second compound 0.316 µM, first compound 0.00316 µM): 91.8%
- viability, T/C (second compound 0.316 µM, first compound 0.01 µM): 99.1%
- viability, T/C (second compound 0.316 µM, first compound 0.0316 µM): 79.5%
- viability, T/C (second compound 0.316 µM, first compound 0.1 µM): 86.4%
- viability, T/C (second compound 0.316 µM, first compound 0.316 µM): 87.8%
- viability, T/C (second compound 0.316 µM, first compound 1 µM): 72.9%
- viability, T/C (second compound 1 µM, first compound 0.00316 µM): 93.5%
- viability, T/C (second compound 1 µM, first compound 0.01 µM): 95.3%
- viability, T/C (second compound 1 µM, first compound 0.0316 µM): 94.1%
- viability, T/C (second compound 1 µM, first compound 0.1 µM): 88.5%
- viability, T/C (second compound 1 µM, first compound 0.316 µM): 90.6%
- viability, T/C (second compound 1 µM, first compound 1 µM): 69.3%
- viability, T/C (second compound 3.16 µM, first compound 0.00316 µM): 105%
- viability, T/C (second compound 3.16 µM, first compound 0.01 µM): 103%
- viability, T/C (second compound 3.16 µM, first compound 0.0316 µM): 88.4%
- viability, T/C (second compound 3.16 µM, first compound 0.1 µM): 90.2%
- viability, T/C (second compound 3.16 µM, first compound 0.316 µM): 81.4%
- viability, T/C (second compound 3.16 µM, first compound 1 µM): 79.8%
- viability, T/C (second compound 10 µM, first compound 0.00316 µM): 110%
- viability, T/C (second compound 10 µM, first compound 0.01 µM): 106%
- viability, T/C (second compound 10 µM, first compound 0.0316 µM): 108%
- viability, T/C (second compound 10 µM, first compound 0.1 µM): 101%
- viability, T/C (second compound 10 µM, first compound 0.316 µM): 77.9%
- viability, T/C (second compound 10 µM, first compound 1 µM): 77.8%
